The record followed here is PubChem BioAssay (NCI).

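How tested: cells in 96-well plates exposed to compound for 48 hours at five concentrations. GI50 marks 50% less growth. TGI: total growth inhibition.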 A value given as a limit tells only on which side of the number the result lay.

Some test systems named below: UO-31 renal; A498 renal; M14 melanoma; SK-MEL-2 melanoma; K-562 leukemia; NCI/ADR-RES ovarian; SN12C renal; SNB-75 CNS; BT-549 breast; SNB-19 CNS.
Holding throughout (test): growth of human tumour cells (NCI), 48 h

On to `C[C@@H]1CC[C@H]2C(CN(C)CC3=C(C(F)(F)F)O[C@@H]4O[C@@]5(C)CC[C@H]6[C@H](C)CC[C@@H]3[C@@]46OO5)=C(C(F)(F)F)O[C@@H]3O[C@@]4(C)CC[C@@H]1[C@]32OO4`, for which the GI50 is 2.86 µM with UO-31 renal; 3.92 µM in the experiment on A498 renal; 2.69 µM in the experiment on M14 melanoma; more than 37.1 µM in the experiment on SK-MEL-2 melanoma; 16.8 µM in the experiment with NCI/ADR-RES ovarian; 7.47 µM in the experiment on SN12C renal. For the same molecule, the GI50 with BT-549 breast was 14.3 µM; in the experiment with SNB-19 CNS, 23.6 µM. Further, the TGI in the experiment on A498 renal was more than 100 µM; in the experiment on M14 melanoma it was more than 100 µM; in the experiment with SK-MEL-2 melanoma, more than 80.7 µM; with K-562 leukemia it was more than 42.6 µM; in the experiment with NCI/ADR-RES ovarian it was more than 59.2 µM; in the experiment on SN12C renal, more than 100 µM. In addition, the results for the TGI with SNB-75 CNS, in the experiment on BT-549 breast and with SNB-19 CNS were more than 23.9 µM, 54.4 µM and more than 100 µM, respectively.
As for `COc1cc(C2CC(c3cc(Cl)c(C)cc3O)=NN2c2ccc(S(N)(=O)=O)cc2)cc(OC)c1OC` (configuration not stated), the GI50 was 2.19 µM in the experiment with UO-31 renal; 4.15 µM with A498 renal; 2.02 µM with M14 melanoma; 3.53 µM in the experiment on SK-MEL-2 melanoma; 3.22 µM in the experiment on K-562 leukemia; 2.58 µM with NCI/ADR-RES ovarian. Moreover, the GI50 is 2.97 µM in the experiment on SN12C renal, 2.45 µM with SNB-75 CNS, 2.6 µM in the experiment with BT-549 breast and 4.61 µM with SNB-19 CNS. Also, the TGI in the experiment on UO-31 renal stood at 28.9 µM; with A498 renal, 15.3 µM; in the experiment on M14 melanoma it was 4.29 µM; in the experiment with SK-MEL-2 melanoma, 12 µM; in the experiment on K-562 leukemia it was 30.9 µM; in the experiment with NCI/ADR-RES ovarian, 7.53 µM. The TGI worked out at 10.3 µM in the experiment on SN12C renal, 28.3 µM in the experiment with SNB-75 CNS, 7.01 µM with BT-549 breast and 23.9 µM in the experiment with SNB-19 CNS.
For the molecule `COc1ccc(C(=O)C(CN(C)C)c2ccccc2)cc1` (configuration not stated), the GI50 in the experiment with UO-31 renal was 1.43 µM; in the experiment with A498 renal, 8.11 µM; in the experiment on M14 melanoma, 1.68 µM; with SK-MEL-2 melanoma, 3.09 µM; in the experiment on K-562 leukemia it was 4.17 µM; in the experiment with NCI/ADR-RES ovarian, 2.7 µM. The GI50 was 3.56 µM in the experiment with SN12C renal, 12.8 µM in the experiment with SNB-75 CNS, 1.76 µM with BT-549 breast and 11.1 µM in the experiment on SNB-19 CNS. Besides, the TGI in the experiment on UO-31 renal was 2.74 µM; in the experiment on A498 renal, 20.5 µM; with M14 melanoma, 3.33 µM; with SK-MEL-2 melanoma, 7.97 µM; with K-562 leukemia, more than 100 µM; with NCI/ADR-RES ovarian it was 6.97 µM. For the same molecule, the TGI in the experiment on SN12C renal stood at 12.1 µM; in the experiment with SNB-75 CNS it was 27.3 µM; in the experiment with BT-549 breast it was 4.56 µM; in the experiment with SNB-19 CNS, 23.1 µM.
`CC(=O)O[C@H]1Cc2c([nH]c3ccccc23)[C@@H](c2ccc(Cl)cc2)N1C(=O)CCNC(C)(C)C`: the GI50 is 1.45 µM in the experiment with UO-31 renal; 1.9 µM with A498 renal; 2.05 µM in the experiment with M14 melanoma; 4.93 µM with SK-MEL-2 melanoma; 3.08 µM in the experiment on K-562 leukemia; 5.57 µM in the experiment on NCI/ADR-RES ovarian. Moreover, the GI50 in the experiment on SN12C renal is 4.24 µM; with SNB-75 CNS it was 1.64 µM; with BT-549 breast it was 4 µM; in the experiment with SNB-19 CNS, 4.64 µM. The TGI is 6.08 µM in the experiment with UO-31 renal; 5.83 µM in the experiment with A498 renal; 6.96 µM with M14 melanoma; 9.88 µM in the experiment on SK-MEL-2 melanoma; 10.1 µM in the experiment with K-562 leukemia; 12.2 µM in the experiment on NCI/ADR-RES ovarian. In addition, the TGI in the experiment with SN12C renal was found to be 8.54 µM; with SNB-75 CNS it was 7.52 µM; in the experiment on BT-549 breast it was 8.27 µM; with SNB-19 CNS, 9.06 µM.
For the molecule `CCN(CC)Cc1cc(Nc2c3ccc(Cl)cc3nc3c(C)cccc23)ccc1O`, the GI50 is 1.06 µM in the experiment with UO-31 renal; 1.05 µM in the experiment on A498 renal; 1.69 µM with M14 melanoma; 1.94 µM with SK-MEL-2 melanoma; 1.16 µM in the experiment on K-562 leukemia; 1.08 µM in the experiment with NCI/ADR-RES ovarian. For the same molecule, the GI50 was 1.36 µM in the experiment on SN12C renal, 1.5 µM in the experiment with SNB-75 CNS, 1.92 µM in the experiment on BT-549 breast and 1.45 µM in the experiment on SNB-19 CNS. The TGI with UO-31 renal worked out at 2.27 µM; with A498 renal, 3 µM; in the experiment with M14 melanoma, 3.11 µM; with SK-MEL-2 melanoma, 3.73 µM; in the experiment on K-562 leukemia, 5.48 µM; with NCI/ADR-RES ovarian, 3.02 µM. The TGI with SN12C renal was determined as 2.92 µM; in the experiment with SNB-75 CNS, 2.84 µM; in the experiment with BT-549 breast, 3.51 µM; in the experiment with SNB-19 CNS it was 3.29 µM.
In the case of `N#CSc1cc(-c2nc3ccccc3o2)ccc1N`, the GI50 is 22.6 µM with UO-31 renal; 31.2 µM with A498 renal; 26.2 µM in the experiment with M14 melanoma; 40.7 µM in the experiment with SK-MEL-2 melanoma; 2.55 µM in the experiment with K-562 leukemia; 22.2 µM in the experiment with NCI/ADR-RES ovarian. Further, the GI50 is 15.8 µM in the experiment with SN12C renal, 1.83 µM in the experiment with SNB-75 CNS, 23.8 µM in the experiment on BT-549 breast and 59.7 µM with SNB-19 CNS. The TGI with UO-31 renal was more than 59.4 µM; in the experiment on A498 renal it was more than 82.2 µM; in the experiment with M14 melanoma it was 80.4 µM; with SK-MEL-2 melanoma, more than 74.3 µM; with K-562 leukemia, more than 89.3 µM; in the experiment with NCI/ADR-RES ovarian, 87.5 µM. Besides, the TGI is 43.1 µM in the experiment on SN12C renal, more than 20.7 µM in the experiment with SNB-75 CNS, more than 60.9 µM in the experiment with BT-549 breast and more than 100 µM in the experiment on SNB-19 CNS.
